These compounds were tested on 3D7 P. falciparum strain (assay: P. falciparum 3D7 parasite proliferation assay (SYBR Green)). Conditions: Plasmodium falciparum, Erythrocyte; 3D7 P. falciparum infected human erythrocytes, 72 hours, SYBR Green fluorescence; read-out: Pf3D7 Activity.
Format: cell-based
Method: The following assay illustrates the invention without in any way limiting the scope of the invention. This parasite proliferation assay measures the increase in parasite DNA content using a DNA intercalating dye, SYBR Green®. 3D7 P. falciparum strain is grown in complete culturing media until parasitemia reaches 3% to 8% with O+ human erythrocytes. 20 μl of screening media is dispensed into 384 well assay plates. 50 nl of compounds of the invention (in DMSO), including antimalarial controls (mefloquine, pyrimethamine and artemisinin), are then transferred into the assay plates, as well as DMSO alone to serve as a negative control for inhibition. Then 30 μl of a suspension of a 3D7 P. falciparum infected erythrocytes in screening media is dispensed into the assay plates such that the final hematocrit is 2.5% with a final parasitemia of 0.3%. The plates are placed in a 37° C. incubator for 72 hours in a low oxygen environment containing 93% N2, 4% CO2, and 3% O2 gas mixture. 10 μl of lysis buffer (saponin, triton-X, EDTA) containing a 10× solution of SYBR Green […] in RPMI media is dispensed into the plates. The plates are lidded and kept at room temperature overnight for the lysis of the infected red blood cells. The fluorescence intensity is measured (excitation […], emission 530 nm) using the Envision™ system (Perkin Elmer). The percentage inhibition of 50%, EC50, is calculated for each compound.

Compound	EC50 [nM]
CC(C)(N)CNC(=O)c1cncc(-c2cc3cc(F)c(Cl)cc3[nH]2)n1 [Example 14, N-(2-amino-2-methylpropyl)-6-(6-chloro-5-fluoro-1H-indol-2-yl)pyrazine-2-carboxamide]	10 to 100
Cc1c(-c2cncc(C(=O)NCC(C)(C)N)n2)[nH]c2c(F)c(Cl)ccc12 [Example 4, N-(2-amino-2-methylpropyl)-6-(6-chloro-7-fluoro-3-methyl-1H-indol-2-yl)pyrazine-2-carboxamide]	< 10
CC(C)(N)CNC(=O)c1cncc(-c2cc3ccnc(Cl)c3[nH]2)n1 [Example 42, N-(2-amino-2-methylpropyl)-6-(7-chloro-1H-pyrrolo[2,3-c]pyridin-2-yl)pyrazine-2-carboxamide]	> 100
Cc1c(-c2cncc(C(=O)NCC(C)(C)N)n2)[nH]c2c(F)cc(Cl)cc12 [Example 6, N-(2-amino-2-methylpropyl)-6-(5-chloro-7-fluoro-3-methyl-1H-indol-2-yl)pyrazine-2-carboxamide]	< 10
CC(C)(N)CNC(=O)c1cncc(-c2cc3cc(OC(F)(F)F)ccc3[nH]2)n1 [Example 2, N-(2-Amino-2-methylpropyl)-6-(5-(trifluoromethoxy)-1H-indol-2-yl)pyrazine-2-carboxamide]	10 to 100
CC(C)(N)CNC(=O)c1cncc(-c2cc3cccc(Cl)c3[nH]2)n1 [Example 28, N-(2-amino-2-methylpropyl)-6-(7-chloro-1H-indol-2-yl)pyrazine-2-carboxamide]	10 to 100
COc1cccc2cc(-c3cncc(C(=O)NCC(C)(C)N)n3)[nH]c12 [Example 44, N-(2-amino-2-methylpropyl)-6-(7-methoxy-1H-indol-2-yl)pyrazine-2-carboxamide]	> 100
Cc1c(-c2cncc(C(=O)NCC(C)(C)N)n2)[nH]c2c1C(=O)CC(C)(C)C2 [Example 56, N-(2-amino-2-methylpropyl)-6-(3,6,6-trimethyl-4-oxo-4,5,6,7-tetrahydro-1H-indol-2-yl)pyrazine-2-carboxamide]	> 100
Cc1c(-c2cncc(C(=O)NCC3(N)CC3)n2)[nH]c2cc(Cl)c(F)cc12 [Example 81, N-((1-aminocyclopropyl)methyl)-6-(6-chloro-5-fluoro-3-methyl-1H-indol-2-yl)pyrazine-2-carboxamide]	10 to 100
Cc1c(-c2cncc(C(=O)NCC3(N)CCOCC3)n2)[nH]c2ccccc12 [Example 89, N-((4-aminotetrahydro-2H-pyran-4-yl)methyl)-6-(3-methyl-1H-indol-2-yl)pyrazine-2-carboxamide]	10 to 100
CC(C)(N)CNC(=O)c1cncc(-c2cc3ccncc3[nH]2)n1 [Example 43, N-(2-amino-2-methylpropyl)-6-(1H-pyrrolo[2,3-c]pyridin-2-yl)pyrazine-2-carboxamide]	> 100
Cc1ccc2[nH]c(-c3cncc(C(=O)NCC(C)(C)N)n3)cc2c1 [Example 26, N-(2-amino-2-methylpropyl)-6-(5-methyl-1H-indol-2-yl)pyrazine-2-carboxamide]	10 to 100
Cc1c(-c2cncc(C(=O)NCC(C)(C)N)n2)[nH]c2ccc(Br)cc12 [Example 74, N-(2-Amino-2-methylpropyl)-6-(5-bromo-3-methyl-1H-indol-2-yl)pyrazine-2-carboxamide]	< 10
Cc1ccc2cc(-c3cncc(C(=O)NCC(C)(C)N)n3)[nH]c2c1 [Example 23, N-(2-amino-2-methylpropyl)-6-(6-methyl-1H-indol-2-yl)pyrazine-2-carboxamide]	10 to 100
Cc1c(-c2cncc(C(=O)NCC(C)(C)C)n2)[nH]c2ccccc12 [Example 68, 6-(3-methyl-1H-indol-2-yl)-N-neopentylpyrazine-2-carboxamide]	> 100
Cc1c(-c2cncc(C(=O)N[C@H]3CCC[C@@H]3N)n2)[nH]c2cc(Cl)c(F)cc12 [Example 77, N-((1S,2S)-2-Aminocyclopentyl)-6-(6-chloro-5-fluoro-3-methyl-1H-indol-2-yl)pyrazine-2-carboxamide]	< 10
Cc1c(-c2cncc(C(=O)NCCN)n2)[nH]c2ccccc12 [Example 86, N-(2-aminoethyl)-6-(3-methyl-1H-indol-2-yl)pyrazine-2-carboxamide]	10 to 100
CC(C)(N)CNC(=O)c1cncc(-c2cc3cc(Cl)nc(Cl)c3[nH]2)n1 [Example 38, N-(2-amino-2-methylpropyl)-6-(5,7-dichloro-1H-pyrrolo[2,3-c]pyridin-2-yl)pyrazine-2-carboxamide]	> 100
Cc1c(-c2cncc(C(=O)NCC3(N)CCC3)n2)[nH]c2ccc(OC(F)(F)F)cc12 [Example 58, N-((1-aminocyclobutyl)methyl)-6-(3-methyl-5-(trifluoromethoxy)-1H-indol-2-yl)pyrazine-2-carboxamide]	< 10

Compound	EC50 [nM]
Cc1c(-c2cncc(C(=O)NCCC(C)(C)N)n2)[nH]c2ccc(OC(F)(F)F)cc12 [Example 59, N-(3-amino-3-methylbutyl)-6-(3-methyl-5-(trifluoromethoxy)-1H-indol-2-yl)pyrazine-2-carboxamide]	< 10
Cc1c(-c2cncc(C(=O)NCC(C)(C)N)n2)[nH]c2c1CCCC2 [Example 51, N-(2-amino-2-methylpropyl)-6-(3-methyl-4,5,6,7-tetrahydro-1H-indol-2-yl)pyrazine-2-carboxamide]	10 to 100
Cc1c(-c2cncc(C(=O)NCC(N)CO)n2)[nH]c2ccccc12 (stereo not shown) [Example 94, N-(2-amino-3-hydroxypropyl)-6-(3-methyl-1H-indol-2-yl)pyrazine-2-carboxamide]	> 100
CN(C)C(=O)c1cc2[nH]c(-c3cncc(C(=O)NCC(C)(C)N)n3)cc2s1 [Example 109, 5-(6-((2-amino-2-methylpropyl)carbamoyl)pyrazin-2-yl)-N,N-dimethyl-4H-thieno[3,2-b]pyrrole-2-carboxamide]	> 100
CC(C)(N)CNC(=O)c1cncc(-c2cc3cc(C(F)(F)F)ccc3[nH]2)n1 [Example 18, N-(2-amino-2-methylpropyl)-6-(5-(trifluoromethyl)-1H-indol-2-yl)pyrazine-2-carboxamide]	10 to 100
Cc1c(-c2cncc(C(=O)NCC3(N)CCOCC3)n2)[nH]c2ccc(OC(F)(F)F)cc12 [Example 61, N-((4-aminotetrahydro-2H-pyran-4-yl)methyl)-6-(3-methyl-5-(trifluoromethoxy)-1H-indol-2-yl)pyrazine-2-carboxamide]	10 to 100
CC(C)(N)CNC(=O)c1cncc(-c2cc3cc(Cl)ncc3[nH]2)n1 [Example 39, N-(2-amino-2-methylpropyl)-6-(5-chloro-1H-pyrrolo[2,3-c]pyridin-2-yl)pyrazine-2-carboxamide]	> 100
Cc1c(-c2cncc(C(=O)N[C@H]3COC[C@H]3N)n2)[nH]c2ccccc12 (racemic) [Example 99, (rac)-N-((3r,4s)-4-aminotetrahydrofuran-3-yl)-6-(3-methyl-1H-indol-2-yl)pyrazine-2-carboxamide]	> 100
Cc1c(-c2cncc(C(=O)NCC3(N)COC3)n2)[nH]c2ccccc12 [Example 95, N-((3-aminooxetan-3-yl)methyl)-6-(3-methyl-1H-indol-2-yl)pyrazine-2-carboxamide]	> 100
COc1cc2[nH]c(-c3cncc(C(=O)NCC(C)(C)N)n3)cc2cc1F [Example 36, N-(2-amino-2-methylpropyl)-6-(5-fluoro-6-methoxy-1H-indol-2-yl)pyrazine-2-carboxamide]	> 100
CC(C)(N)CNC(=O)c1cncc(-c2cc3cc(F)c(O)cc3[nH]2)n1 [Example 110, N-(2-amino-2-methylpropyl)-6-(5-fluoro-6-hydroxy-1H-indol-2-yl)pyrazine-2-carboxamide]	> 100
Cc1c(-c2cncc(C(=O)NC3CCC(N)C3)n2)[nH]c2ccccc12 (stereo not shown) [Example 92, N-(3-aminocyclopentyl)-6-(3-methyl-1H-indol-2-yl)pyrazine-2-carboxamide]	> 100
COC(=O)c1ccc2[nH]c(-c3cncc(C(=O)NCC(C)(C)N)n3)c(C)c2c1 [Example 48, Methyl 2-(6-((2-amino-2-methylpropyl)carbamoyl)pyrazin-2-yl)-3-methyl-1H-indole-5-carboxylate]	10 to 100
CC(C)(N)CNC(=O)c1cncc(-c2cc3cc(OCc4ccccc4)ccc3[nH]2)n1 [Example 22, N-(2-amino-2-methylpropyl)-6-(5-(benzyloxy)-1H-indol-2-yl)pyrazine-2-carboxamide]	10 to 100
Cc1c(-c2cncc(C(=O)NC34CC(N)(C3)C4)n2)[nH]c2ccccc12 [Example 87, N-(3-aminobicyclo[1.1.1]pentan-1-yl)-6-(3-methyl-1H-indol-2-yl)pyrazine-2-carboxamide]	10 to 100
Cc1c(-c2cncc(C(=O)NCC(C)(C)N)n2)[nH]c2cc(Cl)ccc12 [Example 7, N-(2-amino-2-methylpropyl)-6-(6-chloro-3-methyl-1H-indol-2-yl)pyrazine-2-carboxamide]	< 10
Cc1c(-c2cncc(C(=O)N[C@H]3CC[C@H](N)CC3)n2)[nH]c2ccccc12 [Example 97, N-((1r,4r)-4-aminocyclohexyl)-6-(3-methyl-1H-indol-2-yl)pyrazine-2-carboxamide]	> 100
CCc1c(-c2cncc(C(=O)NCC(C)(C)N)n2)[nH]c2ccccc12 [Example 50, N-(2-amino-2-methylpropyl)-6-(3-ethyl-1H-indol-2-yl)pyrazine-2-carboxamide]	10 to 100

Source: patent US20250197376A1, “PYRAZINE AMIDE DERIVATIVES” (Novartis AG, priority 2022, published 2025)
